Data reported in patent publication US20110070232A1, “Combination Therapy with an Antitumor Alkaloid” (Pharma Mar, S.A., priority 2008, published 2011).
“And” between values parts separate entries of the source, which are not always exact repeats. Equal entries are not always repeated. Where two headings read alike, the source gives them in different places.

Legend:
Assay type in all cases: in vivo, mice
H-Meso-1 tumors = conditions: G2 PM00104 0.9 mg/kg/day IV
Procedure: (§1) Female athymic nude mice (Harlan Sprague Dawley, Madison, Wis.) were utilized for all experiments. Animals were housed in ventilated rack caging with food and water ad libitum. The mice were acclimated for at least 5 days prior to tumor implantation.
The tumor model used in this study was H-Meso-1 cell line which is a human mesothelioma cell line obtained from the DTP, DCTD tumor repository. […] Cells were implanted SC into study mice using a 1 ml syringe with a 13G trocar: 5×10^6 cells/mouse in 0.2 ml 50% Matrigel/50% RPMI medium of H-Meso-1 without serum or antibiotics. Bacterial culture was taken on cells used to implant the study.
Treatments were initiated on DPI 6.
(§2) Tumor size measurements were recorded 2-3 times/week from the treatment initiation until the termination of the study.
(§3) Mean, standard deviation and standard error of the mean were determined for tumor volume for all animal groups at all assessments. Student's t test was performed on tumor volumes at each measurement day, including at the end of the study, to determine whether there were any statistically significant differences between combination treatment groups and single monotherapy treatment groups.

NCI-H460 tumors = conditions: for % Inhibition: PM00104 0.9 mg/kg/day, single agents and combination, r5-r13 = day 9,13,16,21,24,27,30,38,41
Procedure: as §1
The tumor model used in this study was NCI-H460 cell line which is a human NSCLC cell line obtained from the ATCC (Manassas, Va.). […] Cells from in vitro passage 7 were implanted SC into study mice using a 1 ml syringe with a 13G trocar: 5×10^6 cells/mouse in 0.2 ml 50% Matrigel/50% RPMI medium of NCI-H460 without serum or antibiotics. Bacterial culture was taken on cells used to implant the study.
Treatments were initiated on DPI 9.
as §2, §3

PLC/PRF/5 tumors = tested on: PLC/PRF/5 tumors
Procedure: Female athymic nude mice (Harlan Sprague Dawley, Madison, Wis.) were utilized for all experiments. Animals were housed in ventilated rack caging with food and water ad libitum. The mice were acclimated for at least 5 days prior to tumor implantation with a tumor cell suspension.
The tumor model used in these studies was PLC/PRF/5 cell line, which was obtained from the ATCC (Manassas, Va.).
PLC/PRF/5 were grown in Eagle's minimum essential medium supplemented with 10% FBS and 1% L-glutamine. Each animal was implanted SC on the right flank, using a 13G trochar and 1 mL syringe, with 5×10^6 PLC/PRF/5 cells in a 0.2 mL suspension of 50% Matrigel and 50% serum free MEM medium, without antibiotics. Bacterial cultures were performed on aliquots of the cells prepared for implantation.
Treatments were initiated on DPI 14.
Tumor size measurements were recorded twice weekly from the treatment initiation until the termination of the study.
as §3

[1] = PM00104 0.9 mg/kg/day IV and/or Bevacizumab 5 mg/kg/day IP
[2] = day 14, PM00104 0.90, sorafenib 60 mg/kg/day
[3] = day 18, PM00104 0.90, sorafenib 60 mg/kg/day
[4] = day 22, PM00104 0.90, sorafenib 60 mg/kg/day
[5] = day 25, PM00104 0.90, sorafenib 60 mg/kg/day
[6] = day 28, PM00104 0.90, sorafenib 60 mg/kg/day
[7] = day 32, PM00104 0.90, sorafenib 60 mg/kg/day
[8] = day 35, PM00104 0.90, sorafenib 60 mg/kg/day
[9] = day 39, PM00104 0.90, sorafenib 60 mg/kg/day
[10] = day 42, PM00104 0.90, sorafenib 60 mg/kg/day

## COc1c(C)cc2c(c1O)[C@@H]1[C@@H]3Cc4c(OC(C)=O)c(C)c5c(c4[C@H](CNC(=O)/C=C/c4cccc(C(F)(F)F)c4)N3[C@@H](O)[C@H](C2)N1C)OCO5 [PM00104]
H-Meso-1 tumors
  % T/C on day 6: 98.5%
  % T/C on day 7: 80.3%
  % T/C on day 9: 69.7%
  % T/C on day 12: 63.3%
  % T/C on day 14: 62.9%
  % T/C on day 16: 62.1%
  % T/C on day 19: 55.1%
  % T/C on day 22: 51.6%
  % T/C on day 26: 56.0%
  % T/C on day 29: 64.9%
H-Meso-1 tumors; day 6
  % Inhibition: 1.5%
H-Meso-1 tumors; day 7
  % Inhibition: 19.7%
H-Meso-1 tumors; day 9
  % Inhibition: 30.3%
H-Meso-1 tumors; day 12
  % Inhibition: 36.7%
H-Meso-1 tumors; day 14
  % Inhibition: 37.1%
H-Meso-1 tumors; day 16
  % Inhibition: 37.9%
H-Meso-1 tumors; day 19
  % Inhibition: 44.9%
H-Meso-1 tumors; day 22
  % Inhibition: 48.4%
H-Meso-1 tumors; day 26
  % Inhibition: 44.0%
H-Meso-1 tumors; day 29
  % Inhibition: 35.0%
NCI-H460 tumors; [1]
  % T/C on day 9: 96.3%
  % T/C on day 13: 97.8%
  % T/C on day 16: 75.9%
  % T/C on day 21: 73.2%
  % T/C on day 24: 66.8%
  % T/C on day 27: 43.8%
  % T/C on day 30: 45.1%
  % T/C on day 38: 125.1%
  % T/C on day 41: 132.5%
NCI-H460 tumors; bevacizumab 5 mg/kg/day
  % Inhibition: 24.1% and 33.2%
NCI-H460 tumors; temsirolimus 10 mg/kg/day
  % Inhibition: 24.1% and 33.2%
NCI-H460 tumors; temsirolimus 20 mg/kg/day
  % Inhibition: 24.1% and 33.2%
PLC/PRF/5 tumors; day 14, PM00104 0.45, sorafenib 60 mg/kg/day
  % T/C: 106.5%
PLC/PRF/5 tumors; [2]
  % Inhibition: −0.8%
  % T/C: 100.8%
PLC/PRF/5 tumors; day 18, PM00104 0.45, sorafenib 60 mg/kg/day
  % T/C: 71.1%
PLC/PRF/5 tumors; [3]
  % Inhibition: 21.2%
  % T/C: 78.8%
PLC/PRF/5 tumors; day 22, PM00104 0.45, sorafenib 60 mg/kg/day
  % T/C: 73.5%
PLC/PRF/5 tumors; [4]
  % Inhibition: 33.3%
  % T/C: 66.7%
PLC/PRF/5 tumors; day 25, PM00104 0.45, sorafenib 60 mg/kg/day
  % T/C: 80.4%
PLC/PRF/5 tumors; [5]
  % Inhibition: 29.0%
  % T/C: 71.0%
PLC/PRF/5 tumors; day 28, PM00104 0.45, sorafenib 60 mg/kg/day
  % T/C: 67.3%
PLC/PRF/5 tumors; [6]
  % Inhibition: 47.1%
  % T/C: 52.9%
PLC/PRF/5 tumors; day 32, PM00104 0.45, sorafenib 60 mg/kg/day
  % T/C: 79.7%
PLC/PRF/5 tumors; [7]
  % Inhibition: 54.4%
  % T/C: 45.6%
PLC/PRF/5 tumors; day 35, PM00104 0.45, sorafenib 60 mg/kg/day
  % T/C: 71.7%
PLC/PRF/5 tumors; [8]
  % Inhibition: 45.1%
  % T/C: 54.9%
PLC/PRF/5 tumors; day 39, PM00104 0.45, sorafenib 60 mg/kg/day
  % T/C: 89.2%
PLC/PRF/5 tumors; [9]
  % Inhibition: 22.9%
  % T/C: 77.1%
PLC/PRF/5 tumors; day 42, PM00104 0.45, sorafenib 60 mg/kg/day
  % T/C: 85.7%
PLC/PRF/5 tumors; [10]
  % Inhibition: 29.9%
  % T/C: 70.1%
